# Reference: US10798943B2, “Use of 6-anilino purine derivatives to improve heat stress tolerance of rice seedlings” (SYNGENTA PARTICIPATIONS AG, priority 2016, dated 2020)
# Experiments:
# [1] = system: rice seedlings (hybrid rice variety ADT45); assay: Phytotoxicity assessments at Ramapuram trial; assay type: in vivo; conditions: for Greenness at 3.2 leaf / Seedling height at 3.2 leaf / Seedling injury / Time to 3.2 leaf / Uniformity of foliage growth at 3.2 leaf / Uniformity of greening at 3.2 leaf / Whiteness of root mat at 3.2 leaf: Ramapuram
# Experimental: For each trial, hybrid rice variety ADT45 was sown in seedling boxes. A compound of formula (Ia) was applied by foliar spray in the form of an EC formulation, at various dose rates and seedling growth stages as shown in Table 1. [table] […] The trial was carried out between 5 Aug. 2015 and 9 Sep. 2015, with transplanting on 15 Aug. 2015. The mean maximum daily temperature during the trial period was 35.3° C., and mean minimum daily temperature during the trial period was 23.7° C. The mean temperature during the entire trial period was 30.2° C.
# [2] = system: rice seedlings (hybrid rice variety ADT45) under heat stress; assay: Transplant shock stress, visual assessment of damage severity, Kumbakonam trial; assay type: in vivo; conditions: for Transplanting shock stress (8th day) / Transplanting shock stress (12th day) / Transplanting shock stress (4th day): Kumbakonam
# Text: Trials were setup in two locations in India to test the effect of compounds of formula I on tolerance of rice seedlings to heat stress during transplantation.
# For each trial, hybrid rice variety ADT45 was sown in seedling boxes. A compound of formula (Ia) was applied by foliar spray in the form of an EC formulation, at various dose rates and seedling growth stages as shown in Table 1.
# Transplanting took place at the […] growth stage. Transplant shock was used as an indicator of tolerance to heat stress, and was measured via visual assessment of damage severity on a scale of 0% (no damage) to 100% (dead plant); observations such as yellowing and leaf tip burning are indicators of damage. Transplant shock was also assessed by measuring NVDI values using a Green Seeker™ crop sensor, which measures the percentage green area. A low transplant shock stress rating and high NVDI rating indicate improved tolerance to transplant shock stress.
# The trial was carried out between 7 May 2015 and 15 Jun. 2015, with transplanting on 29 May 2015. The mean maximum daily temperature during the trial period was 37.3° C., and mean minimum daily temperature during the trial period was 24.9° C. The mean temperature during the entire trial period was 31.1° C.
# [3] = treatment 2: 5 g ai/ha, Pigeon-breast
# [4] = treatment 3: 10 g ai/ha, Pigeon-breast
# [5] = treatment 4: 20 g ai/ha, Pigeon-breast
# [6] = treatment 6: 10 g ai/ha, 2-leaf
# [7] = treatment 7: 20 g ai/ha, 2-leaf
# [8] = treatment 9: 10 g ai/ha, 3-leaf
# [9] = treatment 10: 20 g ai/ha, 3-leaf
compound,measurement,setting,value
COc1cccc(Nc2nc(F)nc3[nH]cnc23)c1 [Formula Ia],Phytotoxic effects to the rice seedlings (summary),"[1]; Ramapuram trial, some marginal effects at the highest dose rate",did not cause any phytotoxic effects
same,Greenness at 3.2 leaf,[1]; [3],3 unit
same,Seedling height at 3.2 leaf,[1]; [3],13 cm
same,Seedling injury,[1]; [3],0%
same,Time to 3.2 leaf,[1]; [3],14 days
same,Uniformity of foliage growth at 3.2 leaf,[1]; [3],90%
same,Uniformity of greening at 3.2 leaf,[1]; [3],95%
same,Whiteness of root mat at 3.2 leaf,[1]; [3],90%
same,Greenness at 3.2 leaf,[1]; [4],3 unit
same,Seedling height at 3.2 leaf,[1]; [4],13 cm
same,Seedling injury,[1]; [4],0%
same,Time to 3.2 leaf,[1]; [4],14 days
same,Uniformity of foliage growth at 3.2 leaf,[1]; [4],90%
same,Uniformity of greening at 3.2 leaf,[1]; [4],95%
same,Whiteness of root mat at 3.2 leaf,[1]; [4],90%
same,Greenness at 3.2 leaf,[1]; [5],3 unit
same,Seedling height at 3.2 leaf,[1]; [5],13 cm
same,Seedling injury,[1]; [5],0%
same,Time to 3.2 leaf,[1]; [5],14 days
same,Uniformity of foliage growth at 3.2 leaf,[1]; [5],90%
same,Uniformity of greening at 3.2 leaf,[1]; [5],95%
same,Whiteness of root mat at 3.2 leaf,[1]; [5],90%
same,Greenness at 3.2 leaf,"[1]; treatment 5: 5 g ai/ha, 2-leaf",3 unit
same,Seedling height at 3.2 leaf,"[1]; treatment 5: 5 g ai/ha, 2-leaf",15 cm
same,Seedling injury,"[1]; treatment 5: 5 g ai/ha, 2-leaf",0%
same,Time to 3.2 leaf,"[1]; treatment 5: 5 g ai/ha, 2-leaf",13 days
same,Uniformity of foliage growth at 3.2 leaf,"[1]; treatment 5: 5 g ai/ha, 2-leaf",90%
same,Uniformity of greening at 3.2 leaf,"[1]; treatment 5: 5 g ai/ha, 2-leaf",95%
same,Whiteness of root mat at 3.2 leaf,"[1]; treatment 5: 5 g ai/ha, 2-leaf",85%
same,Greenness at 3.2 leaf,[1]; [6],3 unit
same,Seedling height at 3.2 leaf,[1]; [6],15 cm
same,Seedling injury,[1]; [6],2%
same,Time to 3.2 leaf,[1]; [6],13 days
same,Uniformity of foliage growth at 3.2 leaf,[1]; [6],90%
same,Uniformity of greening at 3.2 leaf,[1]; [6],95%
same,Whiteness of root mat at 3.2 leaf,[1]; [6],85%
same,Greenness at 3.2 leaf,[1]; [7],2.5 unit
same,Seedling height at 3.2 leaf,[1]; [7],15 cm
same,Seedling injury,[1]; [7],5%
same,Time to 3.2 leaf,[1]; [7],13 days
same,Uniformity of foliage growth at 3.2 leaf,[1]; [7],90%
same,Uniformity of greening at 3.2 leaf,[1]; [7],85%
same,Whiteness of root mat at 3.2 leaf,[1]; [7],80%
same,Greenness at 3.2 leaf,"[1]; treatment 8: 5 g ai/ha, 3-leaf",3 unit
same,Seedling height at 3.2 leaf,"[1]; treatment 8: 5 g ai/ha, 3-leaf",14 cm
same,Seedling injury,"[1]; treatment 8: 5 g ai/ha, 3-leaf",0%
same,Time to 3.2 leaf,"[1]; treatment 8: 5 g ai/ha, 3-leaf",13 days
same,Uniformity of foliage growth at 3.2 leaf,"[1]; treatment 8: 5 g ai/ha, 3-leaf",90%
same,Uniformity of greening at 3.2 leaf,"[1]; treatment 8: 5 g ai/ha, 3-leaf",95%
same,Whiteness of root mat at 3.2 leaf,"[1]; treatment 8: 5 g ai/ha, 3-leaf",90%
same,Greenness at 3.2 leaf,[1]; [8],3 unit
same,Seedling height at 3.2 leaf,[1]; [8],15 cm
same,Seedling injury,[1]; [8],0%
same,Time to 3.2 leaf,[1]; [8],13 days
same,Uniformity of foliage growth at 3.2 leaf,[1]; [8],90%
same,Uniformity of greening at 3.2 leaf,[1]; [8],95%
same,Whiteness of root mat at 3.2 leaf,[1]; [8],90%
same,Greenness at 3.2 leaf,[1]; [9],3 unit
same,Seedling height at 3.2 leaf,[1]; [9],15 cm
same,Seedling injury,[1]; [9],0%
same,Time to 3.2 leaf,[1]; [9],13 days
same,Uniformity of foliage growth at 3.2 leaf,[1]; [9],90%
same,Uniformity of greening at 3.2 leaf,[1]; [9],95%
same,Whiteness of root mat at 3.2 leaf,[1]; [9],90%
same,"Tolerance to heat stress / transplant shock stress, comparison of treatments","[2]; Kumbakonam trial, treatments 5 and 6 (2-leaf growth stage, 5-10 g ai/ha)",giving the best results
same,Transplanting shock stress (8th day),[2]; [3],35%
same,Transplanting shock stress (12th day),[2]; [3],15%
same,Transplanting shock stress (4th day),"[2]; treatment 2: 5 g ai/ha, Pigeon-breast, scale 0% no damage to 100% dead plant",32%
same,Transplanting shock stress (4th day),[2]; [4],38%
same,Transplanting shock stress (8th day),[2]; [4],32%
same,Transplanting shock stress (12th day),[2]; [4],17%
same,Transplanting shock stress (4th day),[2]; [5],30%
same,Transplanting shock stress (8th day),[2]; [5],22%
same,Transplanting shock stress (12th day),[2]; [5],13%
same,Transplanting shock stress (4th day),"[2]; treatment 5: 5 g ai/ha, 2-leaf",15%
same,Transplanting shock stress (8th day),"[2]; treatment 5: 5 g ai/ha, 2-leaf",13%
same,Transplanting shock stress (12th day),"[2]; treatment 5: 5 g ai/ha, 2-leaf",7%
same,Transplanting shock stress (4th day),[2]; [6],30%
same,Transplanting shock stress (8th day),[2]; [6],22%
same,Transplanting shock stress (12th day),[2]; [6],10%
same,Transplanting shock stress (4th day),[2]; [7],35%
same,Transplanting shock stress (8th day),[2]; [7],37%
same,Transplanting shock stress (12th day),[2]; [7],22%
same,Transplanting shock stress (4th day),"[2]; treatment 8: 5 g ai/ha, 3-leaf",27%
same,Transplanting shock stress (8th day),"[2]; treatment 8: 5 g ai/ha, 3-leaf",32%
same,Transplanting shock stress (12th day),"[2]; treatment 8: 5 g ai/ha, 3-leaf",17%
same,Transplanting shock stress (4th day),[2]; [8],42%
same,Transplanting shock stress (8th day),[2]; [8],27%
same,Transplanting shock stress (12th day),[2]; [8],15%
same,Transplanting shock stress (4th day),[2]; [9],45%
same,Transplanting shock stress (8th day),[2]; [9],37%
same,Transplanting shock stress (12th day),[2]; [9],25%
